Results taken from publication PMC3136501 (PLoS ONE, 2011).
Like-named read-outs stand apart in the source and are kept apart here.

Key:
[1] = Pharmacokinetic data of PPIs in humans; type: in vivo; details: maximal total concentration in portal venous blood
[2] = set-up: method as in earlier work; details: computed property from PubChem Compound database; cited from earlier work
[3] = humans, maximal total concentration in systemic circulation, cited from earlier work
[4] = biological target: T1, human OCT1 (Homo sapiens, UniProt O15245); experiment: Inhibition of OCT1-mediated metformin uptake in stably transfected HEK cells; type: cell-based; details: for IC50: 5 µM [14C]metformin uptake, 5 min, HEK-OCT1, means ± SE of 3 experiments
T1 sequence (O15245 1-554): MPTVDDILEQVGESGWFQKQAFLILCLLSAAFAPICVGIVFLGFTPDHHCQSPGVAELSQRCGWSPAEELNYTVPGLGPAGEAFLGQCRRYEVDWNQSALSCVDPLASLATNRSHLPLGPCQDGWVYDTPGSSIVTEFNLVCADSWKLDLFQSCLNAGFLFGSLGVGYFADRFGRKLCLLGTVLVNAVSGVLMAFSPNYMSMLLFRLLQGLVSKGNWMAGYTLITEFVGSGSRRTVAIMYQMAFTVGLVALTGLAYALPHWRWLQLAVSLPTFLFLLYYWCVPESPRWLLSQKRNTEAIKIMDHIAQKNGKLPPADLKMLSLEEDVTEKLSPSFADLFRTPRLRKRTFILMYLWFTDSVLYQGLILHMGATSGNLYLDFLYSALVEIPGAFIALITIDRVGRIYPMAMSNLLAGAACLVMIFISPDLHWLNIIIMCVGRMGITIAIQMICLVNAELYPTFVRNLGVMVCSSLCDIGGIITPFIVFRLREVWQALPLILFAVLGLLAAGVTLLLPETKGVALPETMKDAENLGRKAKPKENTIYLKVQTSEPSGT
Protocol: SLC22A1 cDNA and SLC22A2 cDNA had been PCR-amplified from human liver and kidney, respectively, as reported elsewhere and cDNAs were provided by the German Cancer Research Center; the study and the use of the tissue were approved by the institutional review board of the German Cancer Center, Heidelberg, Germany. Since the data were analyzed anonymously, and tissues were left-over samples from diagnostic procedures, written informed consent had not been required and obtained. IRB specifically waived the need for consent due to the fact the human tissue material used was fully anonymized. SLC22A3 cDNA was amplified using SLC22A3-TrueClone (Origene, Rockville, MD, USA) as the template. SLC22A1 cDNA was cloned into the expression vector pcDNA3.1/Hygro(-) (Invitrogen, Darmstadt, Germany), SLC22A2 and SLC22A3 cDNA into pcDNA3.1(+) (Invitrogen). […] HEK cells were grown in DMEM (Sigma) supplemented with 10% fetal bovine serum (Sigma), 100 U⋅ml^−1 penicillin, and 100 µg⋅ml^−1 streptomycin (Lonza, Basel, Switzerland) at 37°C and 5% CO2. HEK cells were transfected with Metafectene Pro (Biontex, München, Germany). Selection of clones stably expressing OCT1 was carried out with 0.5 mg⋅ml^−1 hygromycin as described. Similarly, clones stably expressing OCT2 or OCT3 were selected with 800 µg⋅ml^−1 G418. HEK cells stably transfected with the empty pcDNA3.1(+) vector served as controls (HEK-Co). Cells were incubated with 5 mM butyrate 24 h before use to increase protein levels of recombinant transporters.
HEK cells (400000 cells/well) were seeded into 24-well cell culture plates (Greiner Bio-One, Frickenhausen, Germany) and grown for 48 h. Cell adherence was improved by coating plates with poly-L-lysine (Biochrom AG, Berlin, Germany) prior to cell plating. All uptake studies were carried out at 37°C as described. […] Uptake was stopped at indicated time points by removing the uptake buffer and immediately washing the cells 3 times with ice-cold uptake buffer. Cells were lysed with 0.2% SDS and intracellular radioactivity was determined by liquid scintillation counting (Hidex 300SL TDCR liquid scintillation counter, Turku, Finland).
OCT-specific metformin uptake was obtained by subtracting metformin uptake in the presence of 2 mM unlabeled 1-methyl-4-phenylpyridinium (MPP) from that in its absence. […] OCT-specific metformin uptake in the presence of a PPI was then calculated as percentage of that in the absence of the respective PPI (100% uninhibited). For each PPI concentration, 3 individual experiments each with 3 parallel measurements were performed. Apparent IC50 values for inhibition of metformin uptake by PPIs were calculated for each individual experiment by fitting the values to the Hill equation using GraphPad Prism 4 (GraphPad Software Inc., La Jolla, CA, USA). Values in Table 1 are given as the means ± SE of the 3 individual experiments.

[5] = tested on: OCT2; set-up: method as in PMID 21103969; details: transport substrate; cited from earlier work
[6] = tested on: OCT1; set-up: method as in PMID 21103969; details: transport substrate; cited from earlier work
[7] = tested on: OCT3; set-up: method as in PMID 21103969; details: transport substrate; cited from earlier work

SMILES	Heavy atom count [2]	Tautomer count [2]	IC50 [4] [µM]	other results
Cc1c(OCC(F)(F)F)ccnc1C[S+]([O-])c1nc2ccccc2[nH]1 (stereo not drawn) [Lansoprazole]	25	0	35.8 ± 5.8	Calculated Cport.vn. ([1]; equation 1 in ref 56, dosage 30 mg (81 µmol)): 7.8 µM; Cmax ([3]; dosage 30 mg (81 µmol)): 2700 nM
C[n+]1ccc(-c2ccccc2)cc1 [MPP, 1-methyl-4-phenylpyridinium]				Km [5]: 3 to 19 µM; Km [6]: 15 to 32 µM; Metformin uptake by HEK-OCT1 in the presence of MPP ([4]; 5 µM metformin, 2 mM unlabeled MPP): almost completely absent; Km [7]: 47 to 83 µM
COc1ccc2[nH]c([S+]([O-])Cc3ncc(C)c(OC)c3C)nc2c1 (stereo not drawn) [Omeprazole]	24	2	15.7 ± 3.8	Calculated Cport.vn. ([1]; equation 1 in ref 56, dosage 20 mg (58 µmol)): 5.4 µM; Cmax ([3]; dosage 20 mg (58 µmol)): 1800 nM
COc1ccnc(C[S+]([O-])c2nc3ccc(OC(F)F)cc3[nH]2)c1OC (stereo not drawn) [Pantoprazole]	26	2	30.8 ± 8.8	Calculated Cport.vn. ([1]; equation 1 in ref 56, dosage 40 mg (104 µmol)): 12.0 µM; Cmax ([3]; dosage 40 mg (104 µmol)): 5500 nM
COCCCOc1ccnc(C[S+]([O-])c2nc3ccccc3[nH]2)c1C (stereo not drawn) [Rabeprazole]	25	0	3 ± 1.7	Calculated Cport.vn. ([1]; equation 1 in ref 56, dosage 20 mg (56 µmol)): 4.7 µM; Cmax ([3]; dosage 20 mg (56 µmol)): 1200 nM; OCT1-mediated metformin uptake at low PPI concentrations ([4]; low concentrations of PPI, Figure 3): activated
COc1ccc2[nH]c([S+]([O-])Cc3ncc(C)c(OC)c3C)nc2n1 (stereo not drawn) [Tenatoprazole]	24	3	23.3 ± 7.1	Calculated Cport.vn. ([1]; equation 1 in ref 56, dosage 40 mg (116 µmol)): 17.2 µM; Cmax ([3]; dosage 40 mg (116 µmol)): 10000 nM
